Read-outs that look alike come from different tables or passages of the source.
Assays:
[1] = system: degranulation of bone marrow-derived mouse mast cells; assay: Inhibition of degranulation (β-hexoseaminidase release) in allergen/IgE-activated BMMC; type: cell-based; details: anti-DNP IgE sensitized, DNP-BSA 30 ng/ml, 30 min
From the text: (§1) Inhibition of LTC4 release and degranulation in allergen/IgE-activated bone marrow-derived mouse mast cells (BMMC): Bone marrow-derived mast cells (BMMC) were generated from pathogen-free 5-7 week old male Balb/c mice according to the method of Davis et al., [2004] (Davis, B. J., et al., (2004), Journal of Immunology, 173: 6914-6920). Essentially, bone marrow cells were obtained by flushing of the femoral bone marrow and cultured in RPMI 1640 medium supplemented with 10% FBS, 100 U/ml penicillin, and 100 μg/ml streptomycin, 25 mM HEPES, 1.0 mM sodium pyruvate, 0.1 mM nonessential amino acids, 0.0035% 2-mercaptoethanol, and 30 ng/ml mouse recombinant IL-3, with culture medium replaced every two days. Cells were used after 4-8 weeks of culture, by which time at least 97% of the cells would have differentiated into mast cells.
The generated BMMCs were seeded at 5×10^4 cells/well in a 96-well flat-bottom culture plate and passively sensitized overnight with 0.5 μg/ml anti-DNP monoclonal IgE antibody (clone SPE-7, Sigma-Aldrich, St. Louis, Mo., USA). The cells were then washed twice to remove any unbound antibody and subsequently re-suspended in reaction buffer (135 mM NaCl, 5 mM KCl, 1.8 mM CaCl2), 1 mM MgCl2, 5.6 mM glucose, 0.05% BSA and 20 mM HEPES, pH 7.4). […] After 30 min incubation at 37° C., the amount of LTC4 released into the supernatant (as index of 5-LO activity) was determined by ELISA as described below.
The concurrently-released granular enzyme, β-hexoseaminidase (as index of degranulation) was determined as described below.
The beta-hexoseaminidase released into the supernatant by the degranulating BMMCs was determined colorimetrically using p-nitrophenyl-N-acetyl-β-D-glucosaminide as substrate. […] The absorbance of the colored product (p-nitrophenol) was then read at 405 nm in a microplate reader. Results were expressed as percentage of the total cell content (determined in cells lysed with 0.1% triton-x-100).

[2] = system: zymosan-induced peritonitis; assay: Zymosan-induced peritoneal inflammation in mice; type: in vivo, mouse; details: 30 min before zymosan i.p., peritoneal exudate at 2 h
From the text: Inhibition of zymosan-induced peritoneal inflammation in mice: Female Balb/c mice, 6-8 weeks old, obtained from the Animal Resources Center of the Health Sciences Center, Kuwait University, were used. They were maintained under temperature-controlled conditions with an artificial 12-h light/dark cycle and allowed standard chow and water ad libitum. The study protocol was approved by the “Health Sciences Center Animal Welfare Committee” and complied with the “Guidelines for the Care and Use of Laboratory Animals” of the Health Sciences Centre, Kuwait University. The zymosan-induced peritonitis model-a recognized LT-mediated inflammatory reaction, described particularly in Hanke et al., 2013 ([…]., et al. (2013). Journal of medicinal chemistry, 56(22), 9031-9044) was used. […] After 30 min, all groups were injected intraperitonally with 0.2 ml of activated zymosan (2 mg/ml) except the control group that received 0.2 ml PBS. After 2 h, all animals were killed and the peritoneal exudate was collected by washing the cavity with 3 ml of heparinized (10 IU/ml) PBS.

[3] = system: LTC4 release from IgE/antigen-activated mouse mast cells (BMMC); assay: Inhibition of LTC4 release in allergen/IgE-activated bone marrow-derived mouse mast cells; type: cell-based; details: for IC50: IgE/antigen (DNP-BSA)-activated BMMC, read-out: Inhibitory Activity IC50, Mouse mast cell LTC4
From the text: as §1
The generated BMMCs were seeded at 5×10^4 cells/well in a 96-well flat-bottom culture plate and passively sensitized overnight with 0.5 μg/ml anti-DNP monoclonal IgE antibody (clone SPE-7, Sigma-Aldrich, St. Louis, Mo., USA). The cells were then washed twice to remove any unbound antibody and subsequently re-suspended in reaction buffer (135 mM NaCl, 5 mM KCl, 1.8 mM CaCl2), 1 mM MgCl2, 5.6 mM glucose, 0.05% BSA and 20 mM HEPES, pH 7.4). They were then pre-incubated with the test compounds (0.01-30 μM) or the solvent (0.05% DMSO) for 15 min before being stimulated with the specific antigen, DNP-BSA (30 ng/ml). After 30 min incubation at 37° C., the amount of LTC4 released into the supernatant (as index of 5-LO activity) was determined by ELISA as described below.
(§2) Assay of released leukotrienes/β-hexoseaminidase enzyme: Appropriately diluted supernatants were assayed for the released LTs (LTB4 and LTC4), by the enzyme immunoassay (EIA) method using assay kits supplied by R&D Systems (Minneapolis, Minn., USA) and following the manufacturer's instructions.

[4] = system: LTC4 release from isolated human monocytes; assay: Inhibition of LTC4 release from isolated human monocytes (A23187-stimulated); type: cell-based; details: read-out: Inhibitory Activity IC50, Human monocyte LTC4
Method: Inhibition of LTC4 release from isolated human monocytes: Mononuclear cells were first isolated from heparinized fresh blood using the Ficoll-Hypaque gradient centrifugation method. Monocytes were subsequently purified by adherence to plastic according to standard protocols. The purity of the adherent monocytes (CD14+) was routinely confirmed by flow cytometry to be >95% and viability (by trypan blue exclusion method) was routinely >97%. Adherent monocytes were then washed and incubated in 190 μl culture medium RPMI-1640 supplemented with 100 U/ml penicillin, 100 μg/ml streptomycin and 10% heat-inactivated fetal bovine serum (Sigma-Aldrich, St Louis, Mo., USA). […] After a further incubation for 15 min, the culture supernatants were recovered by centrifugation and stored at −40° C. pending LTC4 determination.
as §2

[5] = system: 5-LO-dependent generation of leukotriene B4 (LTB4) from activated human whole blood; assay: Inhibition of LTB4 generation from LPS/FMLP-activated human whole blood; type: cell-based; details: LPS-primed, FMLP-stimulated human whole blood; read-out: Inhibitory Activity IC50, Human whole blood LTB4
Method: Inhibition of LTB4 generation from human whole blood: All compounds were evaluated for inhibitory activity against 5-LO-dependent generation of leukotriene B4 (LTB4) from activated human whole blood. With ethical approval from the Health Sciences Center Ethical Committee of Kuwait University, heparinized fresh human blood samples from apparently healthy individuals were obtained from the Kuwait Central Blood Bank. Aliquots of 185 μl of whole blood were dispensed into each well of 96-well culture plate containing 5 μl of the priming agent, lipopolysaccharide (LPS) at a final concentration of 1 μg/ml. […] After further incubation for 15 min at 37° C., 5 μl of N-formylmethionyl-leucyl-phenylalanine (FMLP), at […] final concentration, was added to stimulate LT production. The reaction was stopped after 15 min, and the supernatants recovered by centrifugation and stored at −40° C. pending analysis of the LTB4 content.
as §2

[6] = biological target: T1, recombinant human 5-LO enzyme (Homo sapiens, UniProt P09917); assay: Direct 5-LO inhibitory activity in a cell-free assay (H2DCF-DA fluorescence); type: biochemical
T1 sequence (P09917 1-674): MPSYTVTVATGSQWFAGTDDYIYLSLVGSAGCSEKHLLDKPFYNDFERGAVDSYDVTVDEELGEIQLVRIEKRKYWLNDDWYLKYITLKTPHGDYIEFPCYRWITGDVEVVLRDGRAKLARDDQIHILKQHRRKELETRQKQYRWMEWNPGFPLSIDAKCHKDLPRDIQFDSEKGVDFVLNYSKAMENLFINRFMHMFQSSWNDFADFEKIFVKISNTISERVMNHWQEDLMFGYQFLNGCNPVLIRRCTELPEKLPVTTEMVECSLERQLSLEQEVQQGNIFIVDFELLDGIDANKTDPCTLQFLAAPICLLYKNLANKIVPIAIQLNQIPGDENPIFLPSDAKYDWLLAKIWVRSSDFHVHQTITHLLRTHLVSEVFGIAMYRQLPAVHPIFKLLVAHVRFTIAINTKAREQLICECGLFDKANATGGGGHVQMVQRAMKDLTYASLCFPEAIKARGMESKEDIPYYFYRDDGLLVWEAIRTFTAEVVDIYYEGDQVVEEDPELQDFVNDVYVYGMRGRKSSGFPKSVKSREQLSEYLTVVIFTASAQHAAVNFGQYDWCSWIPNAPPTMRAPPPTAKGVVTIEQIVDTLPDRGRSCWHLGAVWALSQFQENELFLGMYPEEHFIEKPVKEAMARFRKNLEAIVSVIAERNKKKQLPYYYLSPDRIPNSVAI
Method: H2DCF-DA (60 μM) was first pre-cleaved by incubating with 450 mU/ml recombinant human 5-LO enzyme in Tris buffer (containing 50 mM Tris, pH=7.5, 2 mM EDTA, 2 mM CaCl2), 1 mM dithiothreitol (DTT) and 0.6 U/ml glutathione peroxidase) for 10 min at room temperature. […] After 10 min incubation at room temperature, the reaction was started with the addition of 50 μl of the substrate solution (Tris buffer containing 20 μM ATP and 20 μM arachidonic acid). After a further 20 min, the reaction was terminated with 100 μl acetonitrile. Fluorescence was read at 500 nm excitation and 520 emission, with Novostar® microplate reader (BMG Labtech, Offenburg, Germany). Appropriate controls, including 100 μM nordihydroguaiaretic acid (NDGA), were included to isolate only the 5-LO-attributable, NDGA-inhibitable RFU values.

[7] = cell-free, recombinant human 5-LO, read-out: Inhibitory Activity IC50, Human recomb. 5-LO

IC50 ([4]; Monocyte) [µM]	IC50 [5] [nM]	IC50 [6] [µM]	IC50 ([3]; Mus musculus) [µM]	IC50 [6, 7] [µM]	melting point [°C]	Compound	further results
						CC(c1cc2ccccc2s1)N(O)C(N)=O (racemic) [Zileuton, (±)1-(1-(benzo[b]thiophen-2-yl)ethyl)-1-hydroxyurea, reference compound]	Inhibition of degranulation (release of granular β-hexoseaminidase) (FIG. 2B) [1]: only the representative compounds were able to inhibit degranulation; Net Exudate Vol ([2]; 3 mg/kg s.c.): 0.14 ± 0.04 mL; Total Cell No ([2]; 3 mg/kg s.c.): 16.7 ± 2.8 ×10^6; Total LTC4 ([2]; 3 mg/kg s.c.): 71.0 ± 12.4 ng; Net Exudate Vol ([2]; 10 mg/kg s.c.): 0.20 ± 0.07 mL; Total Cell No ([2]; 10 mg/kg s.c.): 24.9 ± 2.1 ×10^6; Total LTC4 ([2]; 10 mg/kg s.c.): 97.2 ± 47.3 ng; Net Exudate Vol ([2]; 30 mg/kg s.c.): no significant effect on exudate volume; Total Cell No ([2]; 30 mg/kg s.c.): 19.1 ± 4.4 ×10^6; Total LTC4 ([2]; 30 mg/kg s.c.): 48.3 ± 9.8 ng; Net Exudate Vol ([2]; 30 mg/kg s.c., listed as Zil): 0.10 ± 0.05 mL; Inhibition of generation of LTC4 from IgE/allergen-activated mast cells (FIG. 2A) ([3]; BMMC, anti-DNP IgE sensitized, DNP-BSA 30 ng/ml, 30 min): equally effective in inhibiting the generation of LTC4
18.7	3300	> 30	20.7			CC(=O)N(O)C[C@H]1CN(c2ccc(N3CCOCC3)c(F)c2)C(=O)O1 [PH-23]	
8.2	1400	11.8	6.3			CCC(=O)N(O)C[C@H]1CN(c2ccc(N3CCOCC3)c(F)c2)C(=O)O1 [PH-199]	
> 50	10700		21.8	> 30		CC(C)C(=O)ON(C[C@H]1CN(c2ccc(N3CCOCC3)c(F)c2)C(=O)O1)C(=O)C(C)C [PH-204]	
14.1	2300	3.9	13.8			CC(C)C(=O)N(O)C[C@H]1CN(c2ccc(N3CCOCC3)c(F)c2)C(=O)O1 [PH-205]	
> 50	7900		37.3	> 30		O=C(ON(C[C@H]1CN(c2ccc(N3CCOCC3)c(F)c2)C(=O)O1)C(=O)C1CC1)C1CC1 [PH-206]	
7.5	1300	3.5	8.7			O=C(C1CC1)N(O)C[C@H]1CN(c2ccc(N3CCOCC3)c(F)c2)C(=O)O1 [PH-211]	
30.7	7900		23.8	14.7	125 to 128	NC(=O)N(O)C[C@H]1CN(c2ccc(N3CCOCC3)c(F)c2)C(=O)O1 [PH-238, (R)-1-((3-(3-fluoro-4-morpholinophenyl)-2-oxooxazolidin-5-yl)methyl)-1-hydroxyurea]	
				4.7	122 to 124.5	CC(C)CC(=O)N(O)C[C@H]1CN(c2ccc(N3CCOCC3)c(F)c2)C(=O)O1 [PH-239, (R)—N-((3-(3-fluoro-4-morpholinophenyl)-2-oxooxazolidin-5-yl)methyl)-N-hydroxy-3-methylbutanamide]	
				3.3	121 to 122.5	CCCCC(=O)N(O)C[C@H]1CN(c2ccc(N3CCOCC3)c(F)c2)C(=O)O1 [PH-241, (R)—N-((3-(3-fluoro-4-morpholinophenyl)-2-oxooxazolidin-5-yl)methyl)-N-hydroxypentanamide]	
					164.5 to 166.5	O=C(C1CCCC1)N(O)C[C@H]1CN(c2ccc(N3CCOCC3)c(F)c2)C(=O)O1 [PH-244, (R)—N-((3-(3-fluoro-4-morpholinophenyl)-2-oxooxazolidin-5-yl)methyl)-N-hydroxycyclopentane-carboxamide]	
					132 to 133.5	O=C(C1CCC1)N(O)C[C@H]1CN(c2ccc(N3CCOCC3)c(F)c2)C(=O)O1 [PH-245, (R)—N-((3-(3-fluoro-4-morpholinophenyl)-2-oxooxazolidin-5-yl)methyl)-N-hydroxycyclobutane-carboxamide]	
	1500			21.6		CCCCCC(=O)ON(C[C@H]1CN(c2ccc(N3CCOCC3)c(F)c2)C(=O)O1)C(=O)CCCCC [PH-246]	IC50 [4]: 7.1 µM; IC50 [3]: 3.3 µM
